Laboratory results reported in ChEMBL document CHEMBL1131890, “Syntheses and evaluation of amidinobenzofuran derivatives as tryptase inhibitors” (Bioorg Med Chem Lett, 1999).

Columns and labels:
Tryptase [1] = biological target: T1, Tryptase (Homo sapiens, UniProt Q9BZJ3+Q15661+Q9NRR2); assay: Inhibition of tryptase activity; assay type: protein assay
[2] = Compound was tested for inhibitory activity against tryptase; parameters: species or system Homo sapiens
Prothrombin = Prothrombin (Homo sapiens, UniProt P00734); assay: Inhibition of thrombin
Rattus norvegicus = assay: Effect of compound on PCA reaction in rats at a i.v. dose of 1 mg/kg 1 hr prior to antigen challenge; assay type: functional; settings: route intravenous
Tryptase [3] = biological target: T1, Tryptase; assay: Compound was tested for inhibitory activity against tryptase; Not determined (value more than […]); assay type: protein assay

Structure (SMILES)	Ki (Tryptase [1]) [nM]	Ki (Prothrombin) [µM]	further results
CCOC(=O)COc1ccc(OCC(=O)N2CCN(C(=O)c3cc4cc(C(=N)N)ccc4o3)CC2)cc1	210	–	–
N=C(N)NCCCCCCC(=O)N1CCN(C(=O)COc2ccc(OCC(=O)N3CCN(C(=O)CCCCCCNC(=N)N)CC3)cc2)CC1	13000	–	–
N=C(N)NCCCCCC(=O)N1CCN(C(=O)COc2ccc(OCC(=O)N3CCN(C(=O)CCCCCNC(=N)N)CC3)cc2)CC1	23000	–	–
N=C(N)c1ccc2oc(C(=O)N3CCN(C(=O)N4CCN(C(=O)c5cc6cc(C(=N)N)ccc6o5)CC4)CC3)cc2c1	460	–	–
O=C(CCCC(=O)N1CCNCC1)C(=O)N1CCN(C(=O)COc2ccc(OCC(=O)N3CCN(C(=O)C(=O)CCCC(=O)N4CCNCC4)CC3)cc2)CC1	–	–	Ki (Tryptase [3]): Value more than 1x10^4
N=C(N)c1ccc2oc(C(=O)N3CCN(C(=O)COc4ccc(OCC(=O)N5CCNCC5)cc4)CC3)cc2c1	67	–	–
N=C(N)c1ccc2oc(C(=O)N3CCN(C(=O)COc4ccccc4)CC3)cc2c1	3000	–	–
N=C(N)Nc1ccc2oc(C(=O)N3CCN(C(=O)COc4ccc(OCC(=O)N5CCN(C(=O)c6cc7cc(NC(=N)N)ccc7o6)CC5)cc4)CC3)cc2c1	1100	24	–
O=C(COc1ccc(OCC(=O)N2CCN(C(=O)c3cc4c(s3)CCNC4)CC2)cc1)N1CCN(C(=O)c2cc3c(s2)CCNC3)CC1	970	–	–
N=C(N)c1ccc2oc(C(=O)N3CCN(C(=O)CC(=O)N4CCN(C(=O)c5cc6cc(C(=N)N)ccc6o5)CC4)CC3)cc2c1	–	82	Ki [2]: 650 nM
N=C(N)NCCCCC(=O)N1CCN(C(=O)COc2ccc(OCC(=O)N3CCN(C(=O)CCCCNC(=N)N)CC3)cc2)CC1	80000	–	–
CN(C)C(=N)c1ccc2oc(C(=O)N3CCN(C(=O)COc4ccc(OCC(=O)N5CCN(C(=O)c6cc7cc(C(=N)N(C)C)ccc7o6)CC5)cc4)CC3)cc2c1	6600	–	–
O=C(CCC(=O)N1CCNCC1)CC(=O)N1CCN(C(=O)COc2ccc(OCC(=O)N3CCN(C(=O)CC(=O)CCC(=O)N4CCNCC4)CC3)cc2)CC1	–	–	Ki (Tryptase [3]): Value more than 1x10^4
N=C(N)c1ccc2oc(C(=O)N3CCN(C(=O)COc4ccc(OCC(=O)N5CCCCC5)cc4)CC3)cc2c1	60	–	–

Second part, led by results:

Ki (Tryptase [1]) [nM]	Ki (Prothrombin) [µM]	Structure (SMILES)	further results
–	32	N=C(N)c1ccc2oc(C(=O)N3CCN(C(=O)CCCC(=O)N4CCN(C(=O)c5cc6cc(C(=N)N)ccc6o5)CC4)CC3)cc2c1	Ki [2]: 8.8 nM
1100	–	N=C(NCc1ccccc1)c1ccc2oc(C(=O)N3CCN(C(=O)COc4ccc(OCC(=O)N5CCN(C(=O)c6cc7cc(C(=N)NCc8ccccc8)ccc7o6)CC5)cc4)CC3)cc2c1	–
0.12	–	N=C(N)c1ccc2oc(C(=O)N3CCN(C(=O)CCCCCCC(=O)N4CCN(C(=O)c5cc6cc(C(=N)N)ccc6o5)CC4)CC3)cc2c1	–
0.029	15	N=C(N)c1ccc2oc(C(=O)N3CCN(C(=O)CO[C@H]4CCC[C@@H](OCC(=O)N5CCN(C(=O)c6cc7cc(C(=N)N)ccc7o6)CC5)CCC4)CC3)cc2c1	inhibition in vivo at 1 mg/kg (Rattus norvegicus): 51%
–	28	N=C(N)c1ccc2oc(C(=O)N3CCN(C(=O)COc4ccc(OCC(=O)NCc5ccccc5)cc4)CC3)cc2c1	Ki [2]: 37 nM
–	5.3	N=C(N)c1ccc2oc(C(=O)N3CCN(C(=O)COc4ccc(OCC(=O)Nc5ccc(-c6c[nH]cn6)cc5)cc4)CC3)cc2c1	Ki [2]: 6.8 nM
13000	–	O=C(COc1ccc(OCC(=O)N2CCN(C(=O)CC(=O)N3CCNCC3)CC2)cc1)N1CCN(C(=O)CC(=O)N2CCNCC2)CC1	–
0.057	32	N=C(N)c1ccc2oc(C(=O)N3CCN(C(=O)COc4ccc(OCC(=O)N5CCN(C(=O)c6cc7cc(C(=N)N)ccc7o6)CC5)cc4)CC3)cc2c1	–
–	23	N=C(N)c1ccc2oc(C(=O)N3CCN(C(=O)CCCCC(=O)N4CCN(C(=O)c5cc6cc(C(=N)N)ccc6o5)CC4)CC3)cc2c1	Ki [2]: 0.86 nM
0.019	230	N=C(N)c1ccc2oc(C(=O)N3CCN(C(=O)CCCCCCCC(=O)N4CCN(C(=O)c5cc6cc(C(=N)N)ccc6o5)CC4)CC3)cc2c1	–
0.028	22	N=C(N)c1ccc2sc(C(=O)N3CCN(C(=O)COc4ccc(OCC(=O)N5CCN(C(=O)c6cc7cc(C(=N)N)ccc7s6)CC5)cc4)CC3)cc2c1	–
1.1	88	N=C(N)c1ccc2oc(C(=O)N3CCN(C(=O)COc4ccccc4OCC(=O)N4CCN(C(=O)c5cc6cc(C(=N)N)ccc6o5)CC4)CC3)cc2c1	–
–	85	N=C(N)c1ccc2oc(C(=O)N3CCN(C(=O)CCCCCC(=O)N4CCN(C(=O)c5cc6cc(C(=N)N)ccc6o5)CC4)CC3)cc2c1	Ki [2]: 1.2 nM
–	51	N=C(N)c1ccc2oc(C(=O)N3CCN(C(=O)CCC(=O)N4CCN(C(=O)c5cc6cc(C(=N)N)ccc6o5)CC4)CC3)cc2c1	Ki [2]: 15 nM
0.046	29	N=C(N)N1CCc2sc(C(=O)N3CCN(C(=O)COc4ccc(OCC(=O)N5CCN(C(=O)c6cc7c(s6)CCN(C(=N)N)C7)CC5)cc4)CC3)cc2C1	–
